The numbers were not newly measured in US10865157B2, “Methods and compositions for increasing the yield of, and beneficial chemical composition of, certain plants” (B.K. Consultants, Inc., priority 2014, dated 2020), which cites them from elsewhere.

The conditions of this data set: similarly sized particles.

Each structure is given as a SMILES string.

Consider `CC(=O)Oc1ccccc1C(=O)O` [non-crystalline aspirin, aspirin], for which the “solubility in water relative to the crystal form” value is 2 to 8 times.
